For test [1], the target named is Rhipicephalus appendiculatus rMS-HBP1, His6-tagged, SEQ ID NO: 20 (Rhipicephalus appendiculatus, UniProt O77422). The conditions noted are these: ^3H-histamine ~0.3 pmol (11,200 cpm), rMS-HBP1 ~100 pmol, 5 measurements.
The target in test [2] is T1, Rhipicephalus appendiculatus rFS-HBP1, His6-tagged, expressed in Spodoptera frugiperda Sf21 cells (baculovirus), SEQ ID NO: 16 (Rhipicephalus appendiculatus, UniProt O77420).
T1 construct: Gly-Ile-(His)6 (C); made in house; host or cells: Spodoptera frugiperda Sf21 cells (baculovirus BacPak6)
T1 sequence (O77420 19-190, added parts left off): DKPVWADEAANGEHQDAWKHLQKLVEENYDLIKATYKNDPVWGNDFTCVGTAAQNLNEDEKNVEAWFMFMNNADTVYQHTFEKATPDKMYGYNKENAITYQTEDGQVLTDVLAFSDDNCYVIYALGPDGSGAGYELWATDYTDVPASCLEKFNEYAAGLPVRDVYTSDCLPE
The test is described as follows: Histamine binding assay (radiolabelled histamine, PEG precipitation, Scatchard), rFS-HBP1. The procedure: (§1) Construction of clones. FS-HBP1, FS-HBP2 and MS-HBP1 were expressed as histidine-tagged proteins (rFS-HBP1, rFS-HBP2 and rMS-HBP1) in Spodoptera frugiperda ovarian cells (Sf21).
In order to append the His6 tag, the coding region of FS-HBP1 was first amplified using the polymerase chain reaction (PCR). […] The forward primer used was: 5′-[…] (SEQ ID NO:3); the reverse primer was: 5′-[…] (SEQ ID NO:4). The primers were designed so that a SacI site was added upstream of the start codon, whilst the stop codon was replaced by a BamHI site, followed by 6 histidine codons and an SpeI site comprising a TAG stop codon. The PCR product was cut with SacI and SpeI. The latter enzyme creates a compatible overhang with XbaI, enabling the fragment to be ligated between the SacI and XbaI sites of the pAcC129.1 transfer vector (Livingstone and Jones (1989) Nucleic Acids Res. 17:2366), generating the plasmid pACC129.1-FS1.HIS. This plasmid therefore contained the sequence Gly-Ile-(His)6 appended to the carboxy terminus of the FS-HBP1 translation product.
The baculovirus expression system was used for expression of the three tagged polypeptides. Spodoptera (Sf21) cells were transfected with the transfer vectors and baculovirus (BacPak6; Clontech). Recombinant virus was amplified as according to Kitts and Possee (1993) BioTechniques 14:810-817). […]

For test [3], the target named is Rhipicephalus appendiculatus FS-HBP2 (SEQ ID NO: 18) truncated version lacking the 28 C-terminal amino acids, bacterially expressed (Rhipicephalus appendiculatus, UniProt O77421).
Chain of Rhipicephalus appendiculatus FS-HBP2 (SEQ ID NO: 18) truncated version lacking the 28 C-terminal amino acids, bacterially expressed (O77421 20-162): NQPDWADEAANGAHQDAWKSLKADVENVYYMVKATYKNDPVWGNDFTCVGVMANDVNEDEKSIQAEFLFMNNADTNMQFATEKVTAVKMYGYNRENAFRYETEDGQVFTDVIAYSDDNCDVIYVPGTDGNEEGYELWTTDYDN
Test [4] addresses T2, Rhipicephalus appendiculatus rFS-HBP2, His6-tagged, expressed in Spodoptera frugiperda Sf21 cells (baculovirus), SEQ ID NO: 18 (Rhipicephalus appendiculatus, UniProt O77421).
T2 construct: Ile-(His)6 (C); made in house; host or cells: Spodoptera frugiperda Sf21 cells (baculovirus BacPak6)
Kind of test: Histamine binding assay (radiolabelled histamine, PEG precipitation, Scatchard), rFS-HBP2. The procedure: as §1
(§2) This plasmid pACC129.1-FS1.HIS was also used for expression of histidine-tagged FS-HBP2 and MS-HBP1. The FS-HBP1 cDNA was deleted using SacI and BamHI thus leaving the histidine codons intact. An upstream SacI and a downstream BglII site (BglII and BamHI create compatible overhangs) were added to the FS-HBP2 and MS-HBP1 coding regions by PCR. […] The forward primer, in the case of FS-HBP2 was: 5′-[…] (SEQ ID NO:5); the reverse primer was: 5′-[…] (SEQ ID NO:6). In the case of MS-HBP1 the forward primer was: 5′-[…] (SEQ ID NO:7), and the reverse primer was: 5′-[…] (SEQ ID NO:8).
(§3) Following PCR, the derived cDNAs were inserted into the vector. A Gln-Ile-(HIS)6 sequence was thus added to the carboxyterminus of the MS-HBP1 translation product, and Ile-(His)6 to the FS-HBP2 translation product.
(§4) The baculovirus expression system was used for expression of the three tagged polypeptides. Spodoptera (Sf21) cells were transfected with the transfer vectors and baculovirus (BacPak6; Clontech). Recombinant virus was amplified as according to Kitts and Possee (1993) BioTechniques 14:810-817). The VABPs are clearly secretion products since they are mainly found in the culture medium of transfected cells as well as in saliva. […]

In the next test the test system is rVABPs. The test is described as follows: Competition experiment: displacement of 3H-histamine from rVABPs by histamine-like compounds. The following applies: cold histamine, reference amount.
Test [5] deals with Rhipicephalus appendiculatus FS-HBP2 (SEQ ID NO: 18) truncated version lacking the 45 N-terminal amino acids, bacterially expressed (Rhipicephalus appendiculatus, UniProt O77421).
Chain of Rhipicephalus appendiculatus FS-HBP2 (SEQ ID NO: 18) truncated version lacking the 45 N-terminal amino acids, bacterially expressed (O77421 65-190): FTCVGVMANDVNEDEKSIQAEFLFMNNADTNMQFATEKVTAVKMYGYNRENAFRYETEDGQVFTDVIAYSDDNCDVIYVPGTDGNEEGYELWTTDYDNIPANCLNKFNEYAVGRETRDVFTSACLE
For test [6], the target named is T3, Rhipicephalus appendiculatus rMS-HBP1, His6-tagged, expressed in Spodoptera frugiperda Sf21 cells (baculovirus), SEQ ID NO: 20 (Rhipicephalus appendiculatus, UniProt O77422).
T3 construct: Gln-Ile-(His)6 (C); made in house; host or cells: Spodoptera frugiperda Sf21 cells (baculovirus BacPak6)
T3 sequence (O77422 19-200, added parts left off): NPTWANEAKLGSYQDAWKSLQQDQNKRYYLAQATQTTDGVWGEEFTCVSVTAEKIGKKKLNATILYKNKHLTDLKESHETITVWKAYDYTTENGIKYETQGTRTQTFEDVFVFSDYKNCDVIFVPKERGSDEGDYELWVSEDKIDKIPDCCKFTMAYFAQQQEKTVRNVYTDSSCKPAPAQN
Kind of test: Histamine binding assay (radiolabelled histamine, PEG precipitation, Scatchard), rMS-HBP1. As to the method:
as §1, §2, §3, §4

pKd: −log10 of the molar value.

Chain of Rhipicephalus appendiculatus rMS-HBP1, His6-tagged, SEQ ID NO: 20 (O77422 19-200): as the sequence (O77422 19-200, added parts left off) above
T2 sequence (O77421 20-190, added parts left off): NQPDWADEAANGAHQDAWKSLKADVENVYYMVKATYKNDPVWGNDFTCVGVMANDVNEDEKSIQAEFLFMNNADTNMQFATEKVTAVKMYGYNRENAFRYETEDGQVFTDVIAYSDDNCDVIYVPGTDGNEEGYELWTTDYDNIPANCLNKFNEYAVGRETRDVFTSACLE

`NCCc1c[nH]cn1` [^3H-histamine]: the “bound radioligand, without added histamine” value in test [1] is listed as 6,840±150 cpm.
As usually defined, the pKd is the Kd on a negative log10 scale, so that one unit is a factor of ten. For the compound `NCCc1c[nH]cn1` [histamine], the negative logarithm of the Kd (pKd) in test [2] was 7.11; in test [4], 8.77; in test [6], 8.92. Besides, the binding to histamine result in test [3] and in test [5] was “do not bind to histamine at all” each time. In addition, in test [1] (plus histamine 0.5 pmol), the “bound radioligand, supplemented with histamine” value is recorded as 7,560±110 cpm. The “displacement of ^3H-histamine from the binding sites” value with rVABPs is given as “more than 95%”.

Source of the values: patent US6617312B1, “Vasoactive amine binding molecules” (Oxford Vacs Ltd., priority 1996, dated 2003).
